Literature values in patent US8067405B2, “Superoxide dismutase mimics for the treatment of ocular disorders and diseases” (Novartis AG, priority 2002, dated 2011).

System: diabetogenic T-cell clone
Conditions: in a cloned cell

For `CCN1C=CC=C/C1=C1/C2=NC(=C(c3cccc[n+]3CC)C3=NC(=C(c4cccc[n+]4CC)c4ccc([n-]4)C(c4cccc[n+]4CC)=C4C=CC1=N4)C=C3)C=C2.[Cl-].[Cl-].[Cl-].[Cl-].[Cl-].[Mn+3]` [AEOL10113], the onset of diabetes is given as “delay the onset of diabetes”.
